We go through 22 molecules from patent US5374772A, “Substituted benzoic acids, inhibitors of phospholipases A2” (Hoffmann-LaRoche Inc., priority 1993, dated 1994).

Structures are written as SMILES. Where a name gives a salt, the structure may show the parent alone.

For experiment [1], the target named is T1, HSF-PLA2 (extracellular PLA2 obtained from human synovial fluid) (Homo sapiens, UniProt P14555).
T1 construct: extracellular enzyme obtained from human synovial fluid; from tissue; host or cells: pooled human synovial fluid (0.1% v/v in the assay)
T1 sequence (P14555 21-144): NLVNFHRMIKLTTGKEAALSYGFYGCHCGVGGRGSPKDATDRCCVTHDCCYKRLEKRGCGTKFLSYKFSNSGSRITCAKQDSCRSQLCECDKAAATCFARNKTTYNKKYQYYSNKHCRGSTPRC
As to the kind of experiment: Assay for Inhibition of HSF-PLA2 In Vitro. Type of experiment: biochemical. To be noted: for inhibition at 10 µM: read-out: % Inhib of HSF-PLA2. How it is done:
The PLA2 used in this test is the extracellular enzyme obtained from human synovial fluid (HSF-PLA2). The assay for HSF-PLA2 activity was a modification of the described method [Franson R., Dobrow R., Weiss, J., Elsbach P., and […]. Lipid Res., 19, 18-23 (1978)] which was conducted using [1-^14 C]-oleate-labelled E. coli substrate in excess at a final concentration of 20,000 dpm/ml. This was equivalent to 18.2 mM of cell membrane phospholipid phosphorus and 2×10^9 autoclaved E. coli/ml. The optimal conditions which were developed for the assay of HSF-PLA2 inhibitors are summarized as follows. […] The reaction was terminated by the addition of 2.5 ml of chloroform-methanol (1 to 1.5, v/v). The extraction of lipids from the stopped reaction mixture was conducted by the further additions of 0.5 ml of chloroform and 1 ml of water with mixing. […] The extracted lipid residue was redissolved in […] of a solution containing carrier oleic acid (0.2 mg/ml) of […]]). […] This TLC system rapidly (6 minutes) resolved the enzymatically released product, ^14 C-oleic acid, from the unreacted ^14 C-phospholipid substrate. The unsaturated lipids were located on the chromatogram by a brief exposure to iodine vapor. The oleic acid zone (Rf value 0.95) and phospholipid zone (origin) were cut out, chopped into small pieces, shaken with 2 ml of ethanol-water (80 to 20, v/v) and 15 ml of Aquasol and counted for radioactivity. A control incubation of substrate in the absence of HSF-PLA2 was performed in each experiment. The PLA2 activity of the human synovial fluid was corrected for this small control value. […] The specific activity of PLA2 in the pooled human synovial fluid under the optimal assay conditions was 49.2 nmoles [1-^14 C]-oleic acid released hour^-1 mg^-1. The IC50 (μM concentration of test compound that produces 50% inhibition of PLA2 activity) was determined for each test compound.

The test system of experiment [2] is TPA-induced mouse ear edema. As to the kind of experiment: TPA Induced Mouse Ear Edema Test (ear punch weight). Type of experiment: in vivo, male CD-1 mice. To be noted: 30 minutes prior to TPA, ear punch weight at 6 hours; for inhibition in vivo at 1 mg / inhibition in vivo at 0.3 mg: Mus musculus; for inhibition in vivo at 1 mg: 1 mg topical, read-out: % Inhib of TPA Mouse Ear Edema (1 mg); for inhibition in vivo at 0.3 mg: 0.3 mg topical, read-out: % Inhib of TPA Mouse Ear Edema (0.3 mg). On the procedure: The TPA-induced mouse ear edema test, a model of irritant-induced contact dermatitis is described in the following reference: J. M. Young, B. M. Wagner and […]. Invest. Dermatology 80, 48-52 (1983). For this test, 10 μl of 12-O-tetradecanoylphorbol-13-acetate (TPA), dissolved in a vehicle of pyridine: water: diethyl ether (20:5:75), was applied to the outside of the right ear of 3-4 week old male CD-1 mice (8 animals per group). The test compounds were dissolved in the same vehicle and 10 μl was applied to the inside of the same ear 30 minutes prior to the application of TPA. Ear punches (6 mm) were removed at 6 hours after TPA application, weighed and assayed for myeloperoxidase (MPO) activity as described in the following reference: P. P. Bradley, […]. Christensen and G. Rothstein, J. Invest. Dermatology 78, 206-209 (1982). The wet weight of the ear biopsy punches is a measure of the ear edema and the level of MPO activity in the ear punches is an indicator of neutrophil infiltration. The data are expressed as percent inhibition of drug-[…] relative to the control group.

In the case of `O=C(O)c1cc(OCCCOc2ccc(-c3ccccc3)cc2)cc(OCCCOc2ccc(-c3ccccc3)cc2)c1` [Example 6, 3,5-bis[3-(1,1'-Biphenyl-4-yloxy)propoxy]benzoic acid], the IC50 in experiment [1] (given as 50 % inhibition at the given concentration, 14C-oleate-labelled E. coli substrate, pH 7.3, 37° C., 30 minutes, read-out: % Inhib of HSF-PLA2: 50 (concentration) = IC50 (μM concentration that produces 50% inhibition of PLA2 activity)) is 3 µM.

As to `O=C(O)c1cc(OCCOc2cccc3ccccc23)cc(OCCOc2cccc3ccccc23)c1` [Example 8A, 3,5-bis[2-(1-naphthalenyloxy)ethoxy]benzoic acid], in experiment [1], the inhibition at 10 µM was 67%. On the same count and under the same terms, under `CCCCCCCCCCCCCCCCCCOc1cc(OCCOc2ccc3ccccc3c2)cc(C(=O)O)c1` [Example 15, 3-[2-(2-Naphthalenyloxy)ethoxy]-5-(octadecyloxy) benzoic acid] stands 77%. Turning to `CCCCCCCCCCCCCCCCCCOc1cc(OCCCOc2ccc([S+](C)[O-])cc2)cc(C(=O)O)c1` (centres unmarked) [Example 24, 3-[3-[4-(Methylsulfinyl)phenoxy]propoxy]-5-(octadecyloxy)benzoic acid], in experiment [1], the inhibition at 10 µM is 72%. For the same molecule, the inhibition in vivo at 1 mg in experiment [2] was 43%. Turning to `CCCCCCCCCCCCCCCCCCOc1cc(OCCCOc2ccc(S(C)(=O)=O)cc2)cc(C(=O)O)c1` [Example 26, 3-[3-[4-(Methylsulfonyl)phenoxy]propoxy]-5-(octadecyloxy)benzoic acid], the inhibition at 10 µM in experiment [1] worked out at 86%. Moreover, the inhibition in vivo at 1 mg in experiment [2] turned out to be 42%. Take `CCCCCCCCCCCCCCCCCCOc1cc(OCCCOc2ccc(O)cc2)cc(C(=O)OC)c1` [Example 34, 3-[3-(4-Hydroxyphenoxy)propoxy]-5-(octadecyloxy) benzoic acid methyl ester]: the inhibition at 10 µM in experiment [1] amounted to 2%. Also, the inhibition in vivo at 1 mg in experiment [2] stood at 42%.

With `CCCCCCCCCCCCCCOc1cc(OCCCOc2ccc(OCc3ccccc3)cc2)cc(C(=O)O)c1` [Example 36, 3-[3-[4-(Phenylmethoxy)phenoxy]propoxy]-5-(tetradecyloxy)benzoic acid], in experiment [1], the inhibition at 10 µM stood at 87%. The inhibition in vivo at 1 mg in experiment [2] is 52%. The like results for `CCCCCCCCCCCCCCOc1cc(OCCCOc2ccc(O)cc2)cc(C(=O)O)c1` [Example 37, 3-[3-(4-Hydroxyphenoxy)propoxy]-5-(tetradecyloxy) benzoic acid] were, in that order, 75% and 57%. With `CCCCCCCCCCOc1cc(OCCCOc2ccc(OCc3ccccc3)cc2)cc(C(=O)O)c1` [Example 39, 3-(Decyloxy)-5-[3-[4-(phenylmethoxy)phenoxy]propoxy]benzoic acid], in experiment [1], the inhibition at 10 µM came out at 61%. Consider `O=C(O)c1cc(OCCCOc2ccc(OCc3ccccc3)cc2)cc(OCCCOc2ccc(OCc3ccccc3)cc2)c1` [Example 41, 3,5-bis[3-[4-(Phenylmethoxy)phenoxy]propoxy]benzoic acid], for which the inhibition at 10 µM in experiment [1] was 54%. Besides, the inhibition in vivo at 1 mg in experiment [2] is 54%.

Regarding `O=C(O)c1cc(OCCCOc2ccc(O)cc2)cc(OCCCOc2ccc(O)cc2)c1` [Example 42, 3,5-bis[3-(4-Hydroxyphenoxy)propoxy]benzoic acid], the inhibition at 10 µM in experiment [1] is 5%. Also, the inhibition in vivo at 1 mg in experiment [2] was determined as 43%. The like results for `CCCCCCCCCCCCCCCCCCOc1cc(OCCCCCCOc2ccc(O)cc2)cc(C(=O)O)c1` [Example 44] were, in that order, 94% and 46%. On to `CCCCCCCCCCCCCCCCCCOc1cc(OCCCOc2ccccc2O)cc(C(=O)O)c1` [Example 46, 3-[3-(2-Hydroxyphenoxy)propoxy]-5-(octadecyloxy) benzoic acid], for which the inhibition at 10 µM in experiment [1] stood at 91%. Further, the inhibition in vivo at 0.3 mg in experiment [2] was 47%.

With `CCCCCCCCCCCCCCCCCCOc1ccc(OCCCOc2ccc(OCc3ccccc3)cc2)c(C(=O)O)c1` [Example 49, 5-(Octadecyloxy)-2-[3-[4-(phenylmethoxy)phenoxy]propoxy]benzoic acid], the inhibition at 10 µM in experiment [1] is 79%. The inhibition in vivo at 0.3 mg in experiment [2] was found to be 27%. `CCCCCCCCCCCCCCCCCCOc1ccc(OCCCOc2ccc(O)cc2)c(C(=O)O)c1` [Example 50, 2-[3-(4-Hydroxyphenoxy)propoxy]-5-(octadecyloxy) benzoic acid]: the inhibition at 10 µM in experiment [1] came to 93%. The inhibition in vivo at 1 mg in experiment [2] amounted to 45%. The like results for `CCCCCCCCCCCCCCCCCCOc1ccc(C(=O)O)c(OCCCOc2ccc(OCc3ccccc3)cc2)c1` [Example 53, 4-(Octadecyloxy)-2-[3-[4-(phenylmethoxy)phenoxy]propoxy]benzoic acid] were, in that order, 55% and 17%. The like results for `CCCCCCCCCCCCCCCCCCOc1ccc(C(=O)O)c(OCCCOc2ccc(O)cc2)c1` [Example 54, 2-[3-(4-Hydroxyphenoxy)propoxy]-4-(octadecyloxy) benzoic acid] were, in that order, 79% and 31%. Turning to `CCCCCCCCCCCCCCCCCCOc1cccc(C(=O)O)c1OCCCOc1ccc(OCc2ccccc2)cc1` [Example 57, 3-(Octadecyloxy)-2-[3-[4-(phenylmethoxy)phenoxy]propoxy]benzoic acid], in experiment [1], the inhibition at 10 µM is 91%. The inhibition in vivo at 1 mg in experiment [2] was found to be 62%.

In the case of `CCCCCCCCCCCCCCOc1cc(OCCCCCCc2cccc(O)c2O)cc(C(=O)OC)c1` [Example 61, 3-[[6-(2,3-Dihydroxyphenyl)hexyl]oxy]-5-(tetradecyloxy) benzoic acid methyl ester], the inhibition at 10 µM in experiment [1] came out at 17%. In addition, the inhibition in vivo at 1 mg in experiment [2] came to 44%. As for `CCCCCCCCCCOc1cc(OCCCCCCc2cccc(O)c2O)cc(C(=O)OC)c1` [Example 66, 3-(Decyloxy)-5-[[6-(2,3-dihydroxyphenyl)hexyl]oxy]benzoic acid methyl ester], the inhibition at 10 µM in experiment [1] was determined as 22%. The inhibition in vivo at 0.3 mg in experiment [2] was 55%.

Take `CCCCCCCCCCOc1cc(OCCCCCCc2cccc(O)c2O)cc(C(=O)OCCN(CC)CC)c1` [Example 71, 3-(Decyloxy)-5-[[6-(2,3-dihydroxyphenyl)hexyl]oxy]benzoic acid 2-(diethylamino)ethyl ester monohydrochloride salt]: the inhibition in vivo at 1 mg in experiment [2] was 57%. Turning to `CCCCCCCCCCOc1cc(OCCCCCCc2cccc(O)c2O)cc(C(=O)OCOC(C)=O)c1` [Example 72, 3-(Decyloxy)-5-[[6-(2,3-dihydroxyphenyl)hexyl]oxy]benzoic acid (acetyloxy)methyl ester], the “% Inhib of TPA Mouse Ear Edema (0.1 mg)” value in experiment [2] (0.1 mg topical) came to 52%.
